Data on three molecules can be found in patent US20230257373A1, “QUORUM SENSING INHIBITORS AND METHODS OF USE” (priority 2020, published 2023).

In assay [1] the target is T1, V. campbellii LuxR (Vibrio harveyi, UniProt P21308).
T1 construct: expressed in transfected cells; host or cells: E. coli DH10B with pKM699 and reporter pJV064
Nature of the assay: E. coli dual-color bioassay (pKM699 LuxR, pJV064 reporter). The class given is cell-based. Conditions: for Inhibition of LuxR in the E. coli bioassay (in words): GFP and mCherry reporters. The source says:
Previously, we developed a bioassay that consists of a dual-color fluorescent reporter plasmid that reports both LuxR activities: the luxCDABE promoter is activated by LuxR and drives expression of gfp, and the VIBHAR_05222 promoter is repressed by LuxR and drives expression of mCherry (van Kessel et al., 2013b) (FIG. 2A). We used this reporter plasmid in an E. coli strain that also contains a plasmid expressing LuxR from its native promoter.
A bioassay was developed to monitor LuxR function that consists of a dual-color reporter plasmid (pJV064) that reports both activities: the luxCDABE promoter is activated by LuxR and drives expression of gfp, and the 05222 promoter is repressed by LuxR and drives expression of mCherry (van Kessel, Ulrich et al. 2013). This reporter plasmid was used in an E. coli strain that also contains a plasmid (pKM699) expressing LuxR from its native promoter. E. coli cultures containing these two plasmids were grown at 30° C. in LB medium with chloramphenicol (10 μg/ml) and tetracycline (10 μg/ml) to select for the two plasmids. Compounds were added to the cultures at a range of concentrations, and the cultures were incubated for 16 hours shaking at 30° C.
The dual-promoter fluorescence reporter assays were performed using E. coli strain DH10B containing two plasmids: 1) plasmid pJV064 containing the PluxC fused to GFP and P05222fused to mCherry to assess LuxR transcriptional regulation, and 2) plasmid pKM699 expressing V. campbellii luxR under control of its native promoter or empty vector pLAFR2.

Assay [2] has as its system PluxC-gfp reporter in V. campbellii. Nature of the assay: PluxC-gfp reporter in V. campbellii strains. As to conditions: Vibrio campbellii.
Assay [3] has as its system PluxC-gfp reporter in V. vulnificus. Nature of the assay: PluxC-gfp reporter in V. vulnificus strains. As to conditions: Vibrio vulnificus.
The target of assay [4] is T1, V. campbellii LuxR. Nature of the assay: qRT-PCR and western blots in wild-type V. campbellii. Type of assay: cell-based. Conditions: for luxC transcripts / 05222 transcripts: qRT-PCR; for luxC transcripts: to levels in a ΔluxR strain; for 05222 transcripts: wild-type cultures; for LuxR protein level: western blot, wild-type V. campbellii. The source says:
The Qstatin-treated regulon overlapped with the SmcR regulon by more than 50%, with similar gene expression fold-changes. […] This is important to note because LuxR and HapR proteins are known to autorepress their own expression. To test the effects of adding inhibitors to V. campbellii LuxR, we added 10A, 10B, and 10C to wild-type V. campbellii and used qRT-PCR and western blots to examine the effects on luxR transcript and protein levels. We also examined the transcript levels for luxC and 05222 genes that are directly activated or repressed by LuxR, respectively.
All PCR reactions were performed using Phusion HF polymerase (NEB). T4 polynucleotide kinase (T4 PNK) used in EMSAs and all other enzymes were purchased from NEB and used according to manufacturer's instructions. Site-directed mutagenesis for construction of plasmids expressing mutant proteins was carried out using the Agilent QuikChange II XL Site-Directed Mutagenesis Kit. All oligonucleotides were purchased from Integrated DNA Technologies (IDT).ALL plasmid constructs were confirmed by DNA sequencing (Eurofins). Cloning details for plasmids are available upon request. Western blot analysis was performed as previously described (van Kessel et al., 2013b), except that new anti-LuxR antibodies were generated through Cocalico against purified LuxR protein. In addition, the western blots were probed with anti-RpoB (Neoclone).
Then cells were induced with 50 μM IPTG and grown under the same conditions until cells reached an OD600 of approximately 1, at which 5 mL of cells were collected by centrifugation and frozen in liquid N2. RNA was extracted using a Trizol/chloroform extraction protocol previously described (Rutherford et al., 2011). Quantitative real-time PCR (qRT-PCR) was performed as previously described (Chaparian et al., 2016). Samples were normalized to the internal standard hfq gene. The ΔΔCT values were used to analyze data from three independent biological replicates. Symbols on graphs represent the mean values and error bars represent the standard deviations. All statistical analysis was performed with functions from GraphPad Prism version 8.

The subject of assay [5] is PluxC-gfp reporter in V. coralliilyticus. Nature of the assay: PluxC-gfp reporter in V. coralliilyticus strains.
In a further assay the test system is Vibrio strains. Nature of the assay: luxCDABE reporter across five Vibrio species. As to conditions: each Vibrio strain except V. cholerae.
The subject of assay [6] is PluxC-gfp reporter in V. parahaemolyticus. Nature of the assay: PluxC-gfp reporter in V. parahaemolyticus strains. Conditions: Vibrio parahaemolyticus.
The next assay has as its system V. vulnificus. Nature of the assay: Growth of V. vulnificus with inhibitor. The class given is cell-based. Conditions: high concentrations. From the text: (§1) Many sulfonamide-containing compounds are known to target the folate synthesis pathway in bacteria and inhibit growth (bacteriostatic), and thus these “sulfa drugs” have been used as broad-spectrum antibiotics for decades (Hammoudeh et al., 2013, Roland et al., 1979). […] We also tested the stability of the inhibitors in bacterial cultures and the timing of the inhibitory effect.

The subject of the next assay is V. campbellii. Nature of the assay: Growth of V. campbellii with inhibitor. Conditions: high concentrations. The class given is cell-based.
Description: as §1

Assay [7] has as its system V. campbellii, V. parahaemolyticus, and V. vulnificus. As to conditions: cited from earlier work.
Another assay deals with SmcR regulon. Conditions: cited from earlier work.
Assay [8] has as its target T2, SmcR (Vibrio vulnificus, UniProt Q9L8G8). Nature of the assay: ITC analysis of SmcR interaction with inhibitors. The class given is binding, V. vulnificus. The source says: To test the validity of the modelling predictions for PTSP, we performed isothermal titration calorimetry (ITC) to determine the binding affinity of SmcR and LuxR for PTSP. […] We noted that PTSP binding to both LuxR and SmcR had lower entropy and enthalpy compared to SmcR binding to Qstatin. […] Thus, we conclude that the efficacy of PTSP inhibition in vivo in these two Vibrio species correlates to the binding affinity determined in vitro for these two proteins.
SmcR and LuxR were purified as described previously. EMSAs were conducted as described previously using oligonucleotides corresponding to the luxC and vvpE promoter sequences. ITC analysis was conducted using purified LuxR or His-tagged SmcR, each in gel-filtration buffer (25 mM Tris pH 7.5, 300 mM NaCl, 0.5 mM EDTA, 1 mM DTT, 2% DMSO). All molecules analyzed were diluted in the same buffer. The samples were degassed for 10 min by vacuum aspiration. Titrations were performed on a Nano-ITC (TA Instruments). […] Thermograms were analyzed using NanoAnalyze software with the independent binding model.

In assay [9] the target is T2, SmcR. As to conditions: Kim et al., 2018; cited from earlier work.
Where [10] appears, read: read-out: IC50 in the bioassay (approximate).
[11] abbreviates: ATCC25920, read-out: Inhibition (IC50) of the PluxC-gfp reporter, Vcamp ATCC 25920.
Setting [12] is: read-out: Inhibition (IC50) of the PluxC-gfp reporter, Vcamp BB120.
The mark [13] stands for this setting: read-out: Inhibition (IC50) of the PluxC-gfp reporter, Vcamp HY01.
Setting [14] is: ATCC27562, read-out: Inhibition (IC50) of the PluxC-gfp reporter, Vvul ATCC 27562.
[15] abbreviates: read-out: Inhibition (IC50) of the PluxC-gfp reporter, Vvul CMPC6.
[16] abbreviates: read-out: Inhibition (IC50) of the PluxC-gfp reporter, Vvul YJ016.
[17] abbreviates: read-out: Inhibition (IC50) of the PluxC-gfp reporter, Vcoral OCN 008.
Setting [18] is: read-out: Inhibition (IC50) of the PluxC-gfp reporter, Vcoral OCN 014.
Setting [19] is: read-out: Inhibition (IC50) of the PluxC-gfp reporter, Vpara 12-297/B.
[20] abbreviates: read-out: Inhibition (IC50) of the PluxC-gfp reporter, Vpara D4.
Where [21] appears, read: read-out: Inhibition (IC50) of the PluxC-gfp reporter, Vpara RIMD 2210633.

pIC50, pKd: −log10 of the molar value. Values joined by “and” are separate entries in the source; they are usually repeats but may differ in a detail not shown here. Identical values can stand only once. Like-named read-outs stand apart in the source and are kept apart here.

T1 sequence (P21308 whole entry): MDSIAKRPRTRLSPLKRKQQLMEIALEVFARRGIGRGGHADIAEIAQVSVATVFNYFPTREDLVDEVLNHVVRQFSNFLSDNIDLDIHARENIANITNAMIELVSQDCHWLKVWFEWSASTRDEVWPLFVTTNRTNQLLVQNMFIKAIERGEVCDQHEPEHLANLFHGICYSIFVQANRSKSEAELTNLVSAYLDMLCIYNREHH
T2 sequence (Q9L8G8 entry or part of it): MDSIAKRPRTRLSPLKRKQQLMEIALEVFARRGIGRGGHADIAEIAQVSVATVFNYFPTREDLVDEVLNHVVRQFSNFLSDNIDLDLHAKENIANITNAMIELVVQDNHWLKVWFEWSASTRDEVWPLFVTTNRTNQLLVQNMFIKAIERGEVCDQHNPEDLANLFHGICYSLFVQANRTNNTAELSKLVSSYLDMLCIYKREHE

Turning to `O=S(=O)(c1ccc(Br)s1)n1ccc(-c2ccccc2)n1` [Compound 10A, 1-((5-bromothiophen-2-yl)sulfonyl)-3-phenyl-1H-pyrazole], on V. campbellii LuxR [1], the “Inhibition of LuxR in the E. coli bioassay (in words)” value (“Inhibition of LuxR” below) was “most potent”. Moreover, the pIC50 on V. campbellii LuxR [1] (setting [10]) was 5.70 to 6.00; in assay [2] (setting [11]), 7.30; in assay [2] (setting [12]), 6.24; in [2] (setting [13]), 6.40; in assay [3] (setting [14]), 8.84; in assay [3] (setting [15]), 7.47. The pIC50 in [3] (setting [16]) is 8.23; in assay [5] (setting [17]) it was 5.68; in assay [5] (setting [18]), 5.70; in assay [6] (setting [19]), 5.99; in assay [6] (setting [20]), 6.06; in [6] (setting [21]) it was 6.20. The luxC transcripts result on V. campbellii LuxR [4] is “significantly decreased”. The 05222 transcripts entry at V. campbellii LuxR [4] is “significantly increased”. In addition, the LuxR protein level entry on V. campbellii LuxR [4] is given as “visible increase”. In the assay on Vibrio strains, the “IC50 values lower than Qstatin” value is roughly 10 fold.

Consider `O=S(=O)(c1ccc(Cl)s1)n1ccc(-c2ccccc2)n1` [Compound 10C, 1-((5-chlorothiophen-2-yl)sulfonyl)-3-phenyl-1H-pyrazole], for which the “Growth rate or growth yield” value in the assay on V. vulnificus and in the assay on V. campbellii was “did not alter growth rate or growth yield” throughout. Besides, the “Inhibition of LuxR” value at V. campbellii LuxR [1] is “most potent”. For the same molecule, the pIC50 on V. campbellii LuxR [1] (setting [10]) was 5.70 to 6.00; in assay [2] (setting [11]), 7.05; in assay [2] (setting [12]) it was 6.15; in [2] (setting [13]) it was 6.80; in assay [3] (setting [14]), 9.12; in assay [3] (setting [15]) it was 7.22. For the same molecule, the pIC50 in assay [3] (setting [16]) was 8.26; in [5] (setting [17]), 5.97; in assay [5] (setting [18]) it was 5.62; in assay [6] (setting [19]) it was 5.98; in [6] (setting [20]), 5.89; in [6] (setting [21]) it was 6.17. The luxC transcripts entry at V. campbellii LuxR [4] is “significantly decreased”. Besides, the 05222 transcripts result at V. campbellii LuxR [4] is recorded as “significantly increased”. The LuxR protein level result at V. campbellii LuxR [4] was “visible increase”. In addition, the “IC50 values lower than Qstatin” value in the assay on Vibrio strains is reported as roughly 10 fold.

As for `O=S(=O)(c1ccc(Br)s1)n1cccn1` [Qstatin, 1-((5-bromothiophen-2-yl)sulfonyl)-1H-pyrazole, reference compound], in [7], the “Inhibition of pathogenesis in shrimp infection assay” value is “inhibits pathogenesis”. Further, the “Off-target effects in the ΔsmcR strain” value in the assay on SmcR regulon (RNA-seq, ΔsmcR strain) is given as “no significant off-target effects”. Also, the “Overlap of Qstatin-treated regulon with the SmcR regulon” value in the assay with SmcR regulon (RNA-seq) is “more than 50%”. Besides, in the assay with SmcR regulon (wild-type V. vulnificus), the “Increase of smcR transcript levels” value is given as 2.5 fold. For the same molecule, on V. campbellii LuxR [1], the “Inhibition of LuxR” value is “inhibited LuxR activity”. Further, the pIC50 was 5.30 on V. campbellii LuxR [1] (Table 2, titration, 16 hours, read-out: Inhibition (IC50) of GFP production by LuxR in E. coli bioassay); 5.00 to 5.30 and 4.70 to 5.00 on V. campbellii LuxR [1] (setting [10]); 6.10 in assay [2] (setting [11]); 5.89 in assay [2] (read-out: IC50, V. campbellii BB120, luxCDABE); 5.40 in assay [2] (setting [12]); 5.92 in assay [2] (setting [13]). Besides, the pIC50 was 6.40 in assay [3] (ATCC27562, read-out: IC50, V. vulnificus ATCC 27562, luxCDABE reporter plasmid); 6.30 in assay [3] (setting [14]); 5.68 in [3] (setting [15]); 6.05 in assay [3] (setting [16]); 5.44 in assay [5] (read-out: IC50, V. coralliilyticus OCN008, luxCDABE reporter plasmid); 4.94 in [5] (setting [17]). Further, the pIC50 is 4.65 in assay [5] (setting [18]); 5.55 in [6] (read-out: IC50, V. parahaemolyticus RIMD2210633, luxCDABE reporter plasmid); 5.77 in [6] (setting [19]); 5.52 in assay [6] (setting [20]); 5.64 in assay [6] (setting [21]). On SmcR [8], this molecule yielded a Ka of 1.36e+06 M⁻¹. The ΔG on SmcR [8] is -8.37 kcal/mol and -8.365 kcal/mol. The molecule further showed a ΔH on SmcR [8] of -19.58 kcal/mol. This molecule gave a ΔS on SmcR [8] of −157.30 J/mol · K. In addition, the “−TΔS” value on SmcR [8] was found to be 11.21 kcal/mol. For the same molecule, on SmcR [8] (25° C., read-out: Kd), the negative logarithm of the Kd (pKd) is 6.13. For the same molecule, the “Effect on SmcR DNA binding affinity” value at SmcR [9] is recorded as “very little effect”.
